Molecules are shown by their SMILES. “And” between values parts separate entries of the source, which are not always exact repeats. Equal values may be shown once. Toxic doses and inconclusive results are not listed.

The test system of this assay is BDF1 mice, Lymphoma 8 ip, survival T/C. The assay is described as follows: NCI In Vivo Anticancer Drug Screen. Data for tumor model Lymphoma 8 (intraperitoneal) in B6D2F1 (BDF1) mice. The following applies: endpoint: survival time, mean or median, higher = longer survival. As to the method:
The antitumor activity of compounds was measured in mice bearing transplantable tumors. Survival or tumor size were measured and the results are expressed as the measurement made in the treated group (T) divided by the measurement made in the vehicle treated control group (C). The tumor model used in this assay is Lymphoma 8 (intraperitoneal) in B6D2F1 (BDF1) mice

Where [1] appears, read: dose: 25.0 mg/kg/injection, schedule: Q01DX015 (ip), vehicle: carboxymethylcellulose (CMC).
Where [2] appears, read: dose: 50.0 mg/kg/injection, schedule: Q01DX015 (ip), vehicle: carboxymethylcellulose (CMC).
The mark [3] stands for this setting: dose: 25.0 mg/kg/injection, schedule: Q01DX010 (ip), vehicle: saline.
[4] abbreviates: dose: 50.0 mg/kg/injection, schedule: Q01DX010 (ip), vehicle: saline.
The mark [5] stands for this setting: dose: 100.0 mg/kg/injection, schedule: Q01DX015 (ip), vehicle: carboxymethylcellulose (CMC).
The mark [6] stands for this setting: dose: 100.0 mg/kg/injection, schedule: Q01DX010 (ip), vehicle: saline.

As to `Nc1ccc(OC(=O)Oc2ccc(N)cc2)cc1`, the T/C was 105 % of control (dose: 25.0 mg/kg/injection, schedule: Q01DX015 (ip), vehicle: saline); 91 % of control (dose: 50.0 mg/kg/injection, schedule: Q01DX015 (ip), vehicle: saline); 111 % of control (dose: 100.0 mg/kg/injection, schedule: Q01DX015 (ip), vehicle: saline); 106 % of control (dose: 200.0 mg/kg/injection, schedule: Q01DX015 (ip), vehicle: saline).
Consider `Nc1c(Br)cc2c(c1Br)Cc1cc([N+](=O)[O-])ccc1-2`, for which the T/C (dose: 62.5 mg/kg/injection, schedule: Q01DX015 (ip), vehicle: carboxymethylcellulose (CMC)) is 88 % of control and the T/C (dose: 125.0 mg/kg/injection, schedule: Q01DX015 (ip), vehicle: carboxymethylcellulose (CMC)) was 87 % of control.
Consider `Clc1ccc2c(Cl)ncnc2c1`, for which the T/C runs as follows: under setting [1], 95 % of control; under setting [2], 88 % of control.
For `S=P(N1CCOCC1)(N1CC1)N1CC1`, the T/C reads like this: (dose: 2.5 mg/kg/injection, schedule: Q01DX010 (ip), vehicle: saline) 100 % of control and 113 % of control; (dose: 5.0 mg/kg/injection, schedule: Q01DX010 (ip), vehicle: saline) 104 % of control and 109 % of control; (dose: 10.0 mg/kg/injection, schedule: Q01DX010 (ip), vehicle: saline) 113 % of control; (dose: 20.0 mg/kg/injection, schedule: Q01DX010 (ip), vehicle: saline) 86 % of control and 122 % of control.
For the compound `CS(=O)(=O)OCCCCOS(C)(=O)=O`, the T/C was 100 % of control (dose: 6.25 mg/kg/injection, schedule: Q01DX010 (ip), vehicle: saline); 105 % of control (dose: 12.5 mg/kg/injection, schedule: Q01DX010 (ip), vehicle: saline); 100 % of control under setting [3]; 105 % of control under setting [4].
Turning to `Nc1nc(SCc2ccccc2)c2[nH]cnc2n1`, the T/C reads like this: (dose: 8.0 mg/kg/injection, schedule: Q01DX010 (ip), vehicle: saline) 91 % of control and 107 % of control; (dose: 16.0 mg/kg/injection, schedule: Q01DX010 (ip), vehicle: saline) 100 % of control and 103 % of control; (dose: 32.0 mg/kg/injection, schedule: Q01DX010 (ip), vehicle: saline) 100 % of control and 103 % of control; (dose: 64.0 mg/kg/injection, schedule: Q01DX010 (ip), vehicle: saline) 91 % of control.
Take `COc1ccc(C[n+]2cc([O-])on2)cc1`: the T/C by setting is: (dose: 12.5 mg/kg/injection, schedule: Q01DX015 (ip), vehicle: carboxymethylcellulose (CMC)) 99 % of control; under setting [1], 106 % of control; under setting [2], 100 % of control; under setting [5], 113 % of control.
As to `CCOC(N)=O`, the T/C was 105 % of control (dose: 125.0 mg/kg/injection, schedule: Q01DX010 (ip), vehicle: saline); 100 % of control (dose: 250.0 mg/kg/injection, schedule: Q01DX010 (ip), vehicle: saline); 100 % of control (dose: 500.0 mg/kg/injection, schedule: Q01DX010 (ip), vehicle: saline).
Take `CN(C)c1nc(N(C)C)nc(N(C)C)n1`: the T/C was 104 % of control and 122 % of control (dose: 18.8 mg/kg/injection, schedule: Q01DX010 (ip), vehicle: saline); 95 % of control and 113 % of control (dose: 37.5 mg/kg/injection, schedule: Q01DX010 (ip), vehicle: saline); 100 % of control (dose: 75.0 mg/kg/injection, schedule: Q01DX010 (ip), vehicle: saline); 100 % of control (dose: 150.0 mg/kg/injection, schedule: Q01DX010 (ip), vehicle: saline).
For the compound `CCn1cnc2c(=S)nc[nH]c21`, the T/C reads like this: (dose: 15.6 mg/kg/injection, schedule: Q01DX010 (ip), vehicle: saline) 91 % of control and 100 % of control; (dose: 31.3 mg/kg/injection, schedule: Q01DX010 (ip), vehicle: saline) 100 % of control; (dose: 62.5 mg/kg/injection, schedule: Q01DX010 (ip), vehicle: saline) 92 % of control and 100 % of control.
For `CSc1ncnc2nc[nH]c12`, the T/C runs as follows: under setting [3], 103 % of control; under setting [4], 103 % of control; under setting [6], 100 % of control.
As for `CC(=O)OCC1OC(n2cnc3c(=S)nc(N)[nH]c32)C(OC(C)=O)C1OC(C)=O` (stereo not drawn), the T/C is, setting by setting: (dose: 12.5 mg/kg/injection, schedule: Q01DX015 (ip), vehicle: other) 106 % of control; (dose: 25.0 mg/kg/injection, schedule: Q01DX015 (ip), vehicle: other) 107 % of control; (dose: 50.0 mg/kg/injection, schedule: Q01DX015 (ip), vehicle: other) 97 % of control.
Consider `Cc1c(O)ccc(=O)n1O`, for which the T/C is 100 % of control (dose: 49.0 mg/kg/injection, schedule: Q01DX015 (ip), vehicle: other); 97 % of control (dose: 73.0 mg/kg/injection, schedule: Q01DX015 (ip), vehicle: other); 105 % of control (dose: 110.0 mg/kg/injection, schedule: Q01DX015 (ip), vehicle: other).
With `CC(=O)NC1=C(N2CC2)C(=O)C(NC(C)=O)=C(N2CC2)C1=O`, the T/C reads like this: (dose: 0.5 mg/kg/injection, schedule: Q01DX015 (ip), vehicle: carboxymethylcellulose (CMC)) 174 % of control; (dose: 1.0 mg/kg/injection, schedule: Q01DX015 (ip), vehicle: carboxymethylcellulose (CMC)) 150 % of control.
Regarding `CCN(CC)CCNc1ccc(C)c2sc3ccccc3c(=O)c12`, the T/C is 122 % of control under setting [4] and 109 % of control under setting [6].
As to `COc1cc(-c2ccc(Nc3ccccc3C(=O)O)c(OC)c2)ccc1Nc1ccccc1C(=O)O`, the T/C by setting is: under setting [1], 101 % of control; under setting [2], 89 % of control; under setting [5], 96 % of control; (dose: 200.0 mg/kg/injection, schedule: Q01DX015 (ip), vehicle: carboxymethylcellulose (CMC)) 90 % of control.
As to `CN(C)[C@@H]1C(=O)C(C(N)=O)=C(O)[C@@]2(O)C(=O)C3=C(O)c4c(O)cccc4C[C@H]3C[C@@H]12`, the T/C is 93 % of control (dose: 15.0 mg/kg/injection, schedule: Q01DX015 (ip), vehicle: alkali diluted with saline) and 89 % of control (dose: 30.0 mg/kg/injection, schedule: Q01DX015 (ip), vehicle: alkali diluted with saline).
Consider `CS(=O)(=O)OCCN(CCOS(C)(=O)=O)c1ccc(N=O)cc1`, for which the T/C is, setting by setting: (dose: 0.25 mg/kg/injection, schedule: Q01DX010 (ip), vehicle: saline) 121 % of control; (dose: 0.5 mg/kg/injection, schedule: Q01DX010 (ip), vehicle: saline) 110 % of control; (dose: 63.0 micrograms/kg/injection, schedule: Q01DX010 (ip), vehicle: saline) 113 % of control; (dose: 125.0 micrograms/kg/injection, schedule: Q01DX010 (ip), vehicle: saline) 120 % of control; (dose: 500.0 micrograms/kg/injection, schedule: Q01DX010 (ip), vehicle: saline) 123 % of control.

These data come from PubChem BioAssay AID242 (DTP/NCI, 2004).
